This note sets out measurements from patent US10045974B2, “2-amino-6-(difluoromethyl)-5,5-difluoro-6-phenyl-3,4,5,6-tetrahydropyridines as BACE1 inhibitors” (H. Lundbeck A/S, priority 2014, dated 2018).

Chain of BACE1 (P56817 46-501): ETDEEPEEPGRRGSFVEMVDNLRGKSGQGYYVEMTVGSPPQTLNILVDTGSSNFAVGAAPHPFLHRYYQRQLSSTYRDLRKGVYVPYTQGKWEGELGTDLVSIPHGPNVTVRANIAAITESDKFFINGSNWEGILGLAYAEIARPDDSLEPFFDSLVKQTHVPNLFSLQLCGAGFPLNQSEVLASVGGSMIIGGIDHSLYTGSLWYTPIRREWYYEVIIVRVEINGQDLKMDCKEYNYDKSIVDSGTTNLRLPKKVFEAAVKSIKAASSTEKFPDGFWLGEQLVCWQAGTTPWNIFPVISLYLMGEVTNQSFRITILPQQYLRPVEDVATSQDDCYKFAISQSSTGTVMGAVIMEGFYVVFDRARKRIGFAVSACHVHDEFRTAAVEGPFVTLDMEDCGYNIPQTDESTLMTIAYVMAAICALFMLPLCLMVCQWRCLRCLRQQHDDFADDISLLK

This test concerns the target BACE1 (Homo sapiens (Human), UniProt P56817). As to the kind of experiment: BACE1 efficacy assay (FRET-based, commercial BACE1 kit). Type of test: biochemical. The following applies: test compound 10 μM. How it is done:
The efficacy assay was performed as a FRET-based assay using a commercially available BACE1 kit (Life Technologies, P2985). 2 μl test compound at 10 μM (final concentration) and 15 μl BACE1 enzyme from the kit (final concentration 3 nM) were preincubated for 15 minutes at room temperature before addition of 15 μl of substrate from the kit (250 nM final concentration) and incubated for additional 90 minutes at room temperature. The assay plate was subsequently read in a Pherastar (Ex540/Em590). The enzyme activity observed in presence of test compound were normalized to the enzyme activity observed in presence of buffer and 10 μM (final concentration) of the high affinity BACE1 reference inhibitor (S)-6-[3-Chloro-5-(5-prop-1-ynyl-pyridin-3-yl)-thiophen-2-yl] -2-imino-3,6-dimethyl-tetra-hydropyrimidin-4-one, respectively. The efficacy of the test compounds was evaluated at 10 μM (final concentration) and defined as the percent inhibition of the enzyme activity using the equation %inhibition=100% -normalized enzyme activity in percent.
With `NC1=N[C@@](c2cc(NC(=O)c3cnc(C(F)F)cn3)ccc2F)(C(F)F)C(F)(F)CC1` [Compound 6, (S)-N-(3-(6-amino-2-(difluoromethyl)-3,3-difluoro-2,3 ,4,5-tetrahydropyridin-2-yl)-4-fluorophenyl)-5-(difluoromethyl)pyrazine-2-carboxamide], the inhibition at 10 µM stood at 103%.

With `Cc1nc(C(=O)Nc2ccc(F)c([C@@]3(C(F)F)N=C(N)CCC3(F)F)c2)co1` [Compound 4, (S)-N-(3-(6-amino-2-(difluoromethyl)-3,3-difluoro-2,3,4,5-tetrahydropyridin-2-yl)-4-fluorophenyl)-2-methyloxazole-4-carboxamide], the inhibition at 10 µM amounted to 104%.

Regarding `Cc1csc(C(=O)Nc2ccc(F)c([C@@]3(C(F)F)N=C(N)CCC3(F)F)c2)n1` [Compound 8, (S)-N-(3-(6-amino-2-(difluoromethyl)-3,3-difluoro-2,3,4,5-tetrahydropyridin-2-yl)-4-fluoro-phenyl)-4-methylthiazole-2-carboxamide], the inhibition at 10 µM turned out to be 102%.

With `COc1ccc(C(=O)Nc2ccc(F)c([C@@]3(C(F)F)N=C(N)CCC3(F)F)c2)nc1` [Compound 5, (S)-N-(3-(6-amino-2-(difluoromethyl)-3,3-difluoro-2,3,4,5-tetrahydropyridin-2-yl)-4-fluorophenyl)-5-methoxypicolinamide], the inhibition at 10 µM came out at 101%. In the case of `COc1cnc(C(=O)Nc2ccc(F)c([C@@]3(C(F)F)N=C(N)CCC3(F)F)c2)cn1` [Compound 3], the inhibition at 10 µM amounted to 103%.

Regarding `COc1cnc(C(=O)Nc2ccc(F)c([C@@]3(C(F)F)N=C(N)CCC3(F)F)c2)nc1` [Compound 9, (S)-N-(3-(6-amino-2-(difluoromethyl)-3,3-difluoro-2,3,4,5-tetrahydropyridin-2-yl)-4-fluorophenyl)-5-methoxypyrimidine-2-carboxamide], the inhibition at 10 µM amounted to 103%. Turning to `[2H]C([2H])([2H])Oc1cnc(C(=O)Nc2ccc(F)c([C@@]3(C(F)F)N=C(N)CCC3(F)F)c2)cn1` [Compound 14, (S)-N-(3-(6-amino-2-(difluoromethyl)-3,3-difluoro-2,3,4,5-tetrahydropyridin-2-yl)-4-fluorophenyl)-5-(methoxy-d3)pyrazine-2-carboxamide], the inhibition at 10 µM was 108%.

In the case of `NC1=N[C@@](c2cc(NC(=O)c3ccc(Cl)cn3)ccc2F)(C(F)F)C(F)(F)CC1` [Compound 1, (S)-N-(3-(6-amino-2-(difluoromethyl)-3,3-difluoro-2,3,4,5-tetrahydropyridin-2-yl)-4-fluorophenyl)-5-chloropicolinamide], the inhibition at 10 µM came out at 106%. For `NC1=N[C@@](c2cc(NC(=O)c3ccc(F)cn3)ccc2F)(C(F)F)C(F)(F)CC1` [Compound 2, (S)-N-(3-(6-amino-2-(difluoromethyl)-3,3-difluoro-2,3,4,5-tetrahydropyridin-2-yl)-4-fluorophenyl)-5-fluoropicolinamide] the value was 100%; for `COc1cnc(C(=O)Nc2ccc(F)c([C@@]3(C(F)F)N=C(N)CCC3(F)F)c2)c(C)n1` [Compound 10, (S)-N-(3-(6-amino-2-(difluoromethyl)-3,3-difluoro-2,3,4,5-tetrahydropyridin-2-yl)-4-fluorophenyl)-5-methoxy-3-methylpyrazine-2-carboxamide], 106%. In the case of `[2H]C([2H])([2H])Oc1ccc(C(=O)Nc2ccc(F)c([C@@]3(C(F)F)N=C(N)CCC3(F)F)c2)nc1` [Compound 13, (S)-N-(3-(6-amino-2-(difluoromethyl)-3,3-difluoro-2,3,4,5-tetrahydropyridin-2-yl)-4-fluorophenyl)-5-(methoxy-d3)picolinamide], the inhibition at 10 µM amounted to 103%.
